Tested on: Mtb-infected mouse lungs
Assay: Genome-wide lung transcriptome (microarray, IPA network/GO analysis) of Mtb-infected mice
Assay type: in vivo
Settings: TNF-a regulon network

## CCOc1cc([C@@H](CS(C)(=O)=O)N2Cc3cccc(NC(=O)C4CC4)c3C2=O)ccc1OC [CC-11050, N-[2-[(1S)-1-(3-ethoxy-4-methoxyphenyl)-2-(methylsulfonyl)ethyl]-2,3-dihydro-3-oxo-1H-isoindol-4-yl]-(9Cl) cyclopropanecarboxamide]
  ENTPD5 expression: 0
  ERCC1 expression: 0
  ERG expression: 0
  ESM1 expression: 0
  FABP1 expression: 0
  FABP4 expression: 0
  FBL expression: 0
  FBXO32 expression: 0
  FCER1G expression: 0
  FCER2 expression: 0
  FGF2 expression: 1.266
  FGF10 expression: 0
  FGF18 expression: 0
  FGFRL1 expression: 0
  FMO1 expression: 0
  FN1 expression: 0
  FNBP1 expression: 0
  FOXO4 expression: 0
  FPR1 expression: 0
  FUT4 expression: 0
  GAB1 expression: 0
  GBP2 expression: 0
  GCLM expression: 0
  GHR expression: 0
  GNAI1 expression: 0
  GNB4 expression: 0
  GNL1 expression: 0
  GOSR2 expression: 0
  GPD1 expression: 0
  GPR126 expression: 0
  GPR176 expression: 0
  GRIA1 expression: 0
  GRN expression: 0
  GSTM2 expression: 0
  GSTT1 expression: 1.249
  GUSB expression: 0
  Gbp2 expression: 0
  Gbp4 expression: 0
  Gbp6 (includes others) expression: 0
  Gsta4 expression: 0
  H2-Q4 expression: 0
  HAPLN1 expression: 0
  HERC1 expression: 0
  HES1 expression: 0
  HEXB expression: 0
  HIF1A expression: 0
  HIPK3 expression: 0
  HIVEP1 expression: 0
  HK2 expression: 0
  HK3 expression: 0
  HLA-B expression: 0
  HLA-C expression: 0
  HLA-DRA expression: 0
  HLA-E expression: 0
  HLA-F expression: 0
  HMGN2 expression: 0
  HPGD expression: 0
  HPGDS expression: 0
  HPRT1 expression: 0
  HSD3B2 expression: 0
  HSD11B1 expression: 1.622
  ID1 expression: 1.521
  IDH2 expression: 0
  IDO1 expression: 0
  IFIH1 expression: 0
  IFIT1B expression: 0
  IFNAR2 expression: 0
  IGFBP5 expression: 0
  IGFBP6 expression: 0
  IL1RN expression: 0
  IL2RA expression: 0
  IL10RA expression: 0
  IL17RD expression: 0
  IL18BP expression: 0
  IL21R expression: 0
  IL21 expression: 0
  INHBA expression: 0
  IRF1 expression: 0
  IRF5 expression: 0
  IRF7 expression: 0
  IRF8 expression: 0
  IRG1 expression: 0
  ISG15 expression: 0
  ITGA4 expression: 0
  ITGAL expression: 0
  ITGAM expression: 0
  ITGB2 expression: 0
  ITGB7 expression: 0
  Ifi204 (includes others) expression: 0
  KCNJ1 expression: 0
  KDR expression: 0
  KIF20A expression: 0
  KITLG expression: 0
  KLF7 expression: 1.276
  KLF10 expression: 1.476
  KRT23 expression: 0
  KYNU expression: 0
  LAMP3 expression: 0
  LCAT expression: 0
  LCN2 expression: 0
  LEP expression: 0
  LGALS12 expression: 0
  LITAF expression: 0
  LOC653486/SCGB1C1 expression: 0
  LOX expression: 1.533
  LPL expression: 0
  LRRC8C expression: 0
  LTB expression: 0
  LXN expression: 0
  LYVE1 expression: 1.461
  MAN1C1 expression: 0
  MAP2K3 expression: 1.176
  MAP4K4 expression: -1.132
  MAPKAP1 expression: 0
  MARCKSL1 expression: 0
  MCL1 expression: 0
  MCM3 expression: 0
  MEFV expression: 0
  MEOX1 expression: 0
  MEOX2 expression: 0
  MMP7 expression: 1.207
  MMP8 expression: 0
  MMP13 expression: 0
  MMP16 expression: 0
  MMP28 expression: 0
  MPC1 expression: 0
  MSR1 expression: 0
  MUC4 expression: 0
  MVP expression: 0
  MYO9B expression: 0
  NAGLU expression: 0
  NAIP expression: 0
  NAMPT expression: 0
  NCAM1 expression: 0
  NCF2 expression: 0
  NCOA2 expression: 0
  NEDD9 expression: -1.086
  NFATC1 expression: 0
  NFKB2 expression: 0
  NFKBIA expression: 0
  NFKBIE expression: 0
  NFKBIZ expression: -1.15
  NFRKB expression: 0
  NME3 expression: 1.1811
  NNMT expression: 0
  NPM3 expression: 0
  NPPA expression: 0
  NR4A1 expression: 0
  NR4A3 expression: 0
  NRP1 expression: 0
  NTN1 expression: 0
  NUAK1 expression: 0
  NUAK2 expression: 0
  Nppb expression: 0
  OAS1 expression: 0
  OAS2 expression: 0
  OAS3 expression: 0
  OASL expression: 0
  OCLN expression: 0
  OGN expression: 1.2
  OLFML2B expression: 0
  OLR1 expression: 0
  P2RY6 expression: 0
  PAFAH2 expression: 0
  PC expression: 0
  PCBP2 expression: 0
  PCDH7 expression: 0
  PCK1 expression: 0
